In BindingDB's records for doi:10.1128/AAC.00386-06 (University of Connecticut At Storrs, 2006):

Each molecule was assayed against T1, Dihydrofolate reductase (Bacillus cereus (strain ATCC 14579 / DSM 31 / CCUG 7414 / JCM 2152 / NBRC 15305 / NCIMB 9373 / NCTC 2599 / NRRL B-3711), UniProt Q81E04) (assay: In Vitro Inhibition Assay). Details: pH 7; 25 °C.
T1 sequence (Q81E04 whole entry): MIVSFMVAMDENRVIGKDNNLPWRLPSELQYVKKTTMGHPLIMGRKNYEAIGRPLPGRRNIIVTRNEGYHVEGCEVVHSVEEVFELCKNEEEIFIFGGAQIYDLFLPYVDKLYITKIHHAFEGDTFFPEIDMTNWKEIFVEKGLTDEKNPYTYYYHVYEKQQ
Protocol: Enzyme activity assays were performed by monitoring the rate of enzyme-dependent NADPH consumption at an absorbance of 340 nm over a period of several minutes. After an incubation period of 5 min in the presence or absence of the inhibitor, the reaction was initiated with the addition of dihydrofolate. The reactions were performed a minimum of four times to determine the average rate and 50% inhibitory concentration values.

Question: With `Nc1nc(N)c2c(ccc3c4ccccc4ccc32)n1` [4,6-diazatetracyclo[8.8.0.0^{2,7}.0^{11,16}]octadeca-1(10),2,4,6,8,11(16),12,14,17-nonaene-3,5-diamine] as the molecule, how does the IC50 read?
Answer: Its IC50 is greater than 1000 µM.

Question: How did the IC50 turn out when `COc1ccc(CCCCCC(=O)O)cc1Cc1cnc(N)nc1N` was run?
Answer: Its IC50 is 150 µM.

Question: How did the IC50 turn out when `COc1ccc(I)cc1Cc1cnc(N)nc1N` [5-[(5-iodo-2-methoxyphenyl)methyl]pyrimidine-2,4-diamine] was run?
Answer: The IC50 was 37.3 µM.

Question: With `COc1ccc(C#CCCCCC(=O)O)cc1Cc1cnc(N)nc1N` as the molecule, how does the IC50 read?
Answer: Its IC50 is 69.3 µM.

Question: With `CCOC(=O)CCCCOc1ccc(OC)c(Cc2cnc3nc(N)nc(N)c3c2C)c1` [ethyl 5-[3-({2,4-diamino-5-methylpyrido[2,3-d]pyrimidin-6-yl}methyl)-4-methoxyphenoxy]pentanoate] as the molecule, how does the IC50 read?
Answer: The IC50 was 0.35 µM.

Question: `COc1ccc(OCCCCCC(=O)O)cc1Cc1cnc2nc(N)nc(N)c2c1C` [2,4-diamino-5-deazapteridine, 6] was tested. Which IC50 did it give?
Answer: Its IC50 is 0.51 µM.

Question: `Cc1nc2nc(N)nc(N)c2nc1CN(C)c1ccc2c(Cl)cc(Cl)cc2c1` [6-{[(5,7-dichloronaphthalen-2-yl)(methyl)amino]methyl}-7-methylpteridine-2,4-diamine] was tested. Which IC50 did it give?
Answer: The IC50 was greater than 1000 µM.

Question: How did the IC50 turn out when `COc1ccc(OCCCC(=O)O)cc1Cc1cnc2nc(N)nc(N)c2c1C` [4-[3-({2,4-diamino-5-methylpyrido[2,3-d]pyrimidin-6-yl}methyl)-4-methoxyphenoxy]butanoic acid] was run?
Answer: Its IC50 is 0.6 µM.

Question: Which IC50 does the source give for `COc1ccc(OCCCCC(=O)O)cc1Cc1cnc2nc(N)nc(N)c2c1C` [2,4-diamino-5-deazapteridine, 5] here?
Answer: The IC50 was 1.67 µM.

Question: Which IC50 does the source give for `Nc1nc(N)c2nc(CN3c4ccccc4C=Cc4ccccc43)cnc2n1` [6-{2-azatricyclo[9.4.0.0^{3,8}]pentadeca-1(11),3(8),4,6,9,12,14-heptaen-2-ylmethyl}pteridine-2,4-diamine] here?
Answer: Its IC50 is 16.7 µM.

Question: With `CCOC(=O)CCCCCOc1ccc(OC)c(Cc2cnc3nc(N)nc(N)c3c2C)c1` [ethyl 6-[3-({2,4-diamino-5-methylpyrido[2,3-d]pyrimidin-6-yl}methyl)-4-methoxyphenoxy]hexanoate] as the molecule, how does the IC50 read?
Answer: The IC50 was 1.85 µM.

Question: Which IC50 does the source give for `Nc1nc(N)c2nc(CNc3ccc4cc(Cl)ccc4c3)cnc2n1` [6-{[(6-chloronaphthalen-2-yl)amino]methyl}pteridine-2,4-diamine] here?
Answer: The IC50 was 6.32 µM.

Question: Which IC50 does the source give for `CN(Cc1cnc2nc(N)nc(N)c2n1)c1ccc2c(Cl)cc(Cl)cc2c1` [6-{[(5,7-dichloronaphthalen-2-yl)(methyl)amino]methyl}pteridine-2,4-diamine] here?
Answer: Its IC50 is 17.6 µM.

Question: Which IC50 does the source give for `COc1cc(CCc2c[nH]c3nc(N)nc(N)c23)cc(OC)c1OC` [5-[2-(3,4,5-trimethoxyphenyl)ethyl]-7H-pyrrolo[2,3-d]pyrimidine-2,4-diamine] here?
Answer: Its IC50 is 252 µM.

Question: For `COc1cc(NCc2ccc3nc(N)nc(N)c3c2)c(Br)c(OC)c1OC` [6-{[(2-bromo-3,4,5-trimethoxyphenyl)amino]methyl}quinazoline-2,4-diamine], which IC50 is on record?
Answer: The IC50 was 1.1 µM.

Question: How did the IC50 turn out when `CCOC(=O)CCCOc1ccc(OC)c(Cc2cnc3nc(N)nc(N)c3c2C)c1` [2,4-diamino-5-deazapteridine, 7] was run?
Answer: The IC50 was 0.88 µM.

Question: `COc1ccc(C#CCCCCC(=O)O)cc1Cc1cnc2nc(N)nc(N)c2c1C` [2,4-diamino-5-deazapteridine, 2] was tested. Which IC50 did it give?
Answer: The IC50 was 0.27 µM.

Question: With `COc1ccc(C#CCCCC(=O)O)cc1Cc1cnc2nc(N)nc(N)c2c1C` [6-[3-({2,4-diamino-5-methylpyrido[2,3-d]pyrimidin-6-yl}methyl)-4-methoxyphenyl]hex-5-ynoic acid] as the molecule, how does the IC50 read?
Answer: The IC50 was 1.9 µM.

Question: For `Nc1nc(N)c2nc(CNc3ccc4cc(Cl)c(Cl)cc4c3)cnc2n1` [6-{[(6,7-dichloronaphthalen-2-yl)amino]methyl}pteridine-2,4-diamine], which IC50 is on record?
Answer: The IC50 was 4.82 µM.

Question: Which IC50 does the source give for `CN(Cc1cnc2nc(N)nc(N)c2n1)c1ccc2cc(Cl)ccc2c1` [6-{[(6-chloronaphthalen-2-yl)(methyl)amino]methyl}pteridine-2,4-diamine] here?
Answer: The IC50 was 2.26 µM.

Question: How did the IC50 turn out when `Nc1nc(N)c2nc(CNc3ccc4c(Cl)cc(Cl)cc4c3)cnc2n1` [6-{[(5,7-dichloronaphthalen-2-yl)amino]methyl}pteridine-2,4-diamine] was run?
Answer: Its IC50 is 7.58 µM.
